Results reported in PubChem BioAssay (NCI).
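Method: 48-hour compound exposure of cells in 96-well plates, five concentrations, linear interpolation of endpoints. TGI denotes the concentration required for complete inhibition of growth.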

Experiments:
Assay in all cases: inhibition of tumour cell growth, NCI panel, 48 h
MDA-MB-435 = system: MDA-MB-435
TK-10 renal = system: TK-10 renal
NCI-H226 lung = system: NCI-H226 lung
OVCAR-3 ovarian = system: OVCAR-3 ovarian
OVCAR-4 ovarian = system: OVCAR-4 ovarian
SF-539 CNS = system: SF-539 CNS
HT29 colon = system: HT29 colon
SR leukemia = system: SR leukemia
SK-OV-3 ovarian = system: SK-OV-3 ovarian
SK-MEL-28 melanoma = system: SK-MEL-28 melanoma
U251 CNS = system: U251 CNS
MDA-MB-231 breast = system: MDA-MB-231 breast
786-0 renal = system: 786-0 renal
UACC-62 melanoma = system: UACC-62 melanoma
KM12 colon = system: KM12 colon
RPMI-8226 leukemia = system: RPMI-8226 leukemia
SW-620 colon = system: SW-620 colon
SNB-75 CNS = system: SNB-75 CNS
EKVX NSCLC = system: EKVX NSCLC
SK-MEL-5 melanoma = system: SK-MEL-5 melanoma

Structure (SMILES)	TGI (MDA-MB-435)	TGI (TK-10 renal)	TGI (NCI-H226 lung)	TGI (OVCAR-3 ovarian)	TGI (OVCAR-4 ovarian)	TGI (SF-539 CNS)	TGI (HT29 colon)	TGI (SR leukemia)	TGI (SK-OV-3 ovarian)	TGI (SK-MEL-28 melanoma)	TGI (U251 CNS)	TGI (MDA-MB-231 breast)	TGI (786-0 renal)	TGI (UACC-62 melanoma)	TGI (KM12 colon)	TGI (RPMI-8226 leukemia)	TGI (SW-620 colon)	TGI (SNB-75 CNS)	TGI (EKVX NSCLC)	TGI (SK-MEL-5 melanoma)
CCNC1=C(NC(=O)c2ccccc2)C(=O)c2ccccc2C1=O	19.4 µM	> 100 µM	> 100 µM	85.3 µM	> 100 µM	> 100 µM	82.5 µM	> 100 µM	> 100 µM	> 100 µM	> 100 µM	> 100 µM	> 100 µM	> 100 µM	> 100 µM	> 100 µM	> 100 µM			
Nc1cccc(OCC2CCCN3CCCCC23)c1 (stereo not drawn)	40.2 µM	34.1 µM	> 100 µM	38.2 µM	47.2 µM	36.5 µM	25.1 µM		> 100 µM	35.7 µM	44.6 µM	32.6 µM	29.6 µM	31.8 µM	32.4 µM	33.1 µM	39.4 µM	30.8 µM	31.7 µM	33.8 µM
OCCCCn1cc(Cn2ncc3c(NCc4ccccc4)ncnc32)nn1	> 100 µM	> 100 µM	> 100 µM	> 100 µM	> 100 µM	> 100 µM	> 100 µM	> 100 µM	> 100 µM	> 100 µM	> 100 µM	> 100 µM	> 100 µM	> 100 µM	> 100 µM	> 100 µM	> 100 µM		> 100 µM	> 100 µM
CC(=O)C1C(=O)C(=O)N(c2ccc([N+](=O)[O-])cc2)C1=O (stereo not drawn)	> 100 µM	> 100 µM	> 100 µM	> 100 µM	> 100 µM	> 100 µM	> 100 µM		> 100 µM	> 100 µM	> 100 µM	> 100 µM	> 100 µM	> 100 µM	> 100 µM		> 100 µM	> 100 µM	> 100 µM	> 100 µM
CCOC(=O)C1C(c2ccc(OC)cc2)c2c([nH][nH]c2=O)CC1(C)O (stereo not drawn)	> 100 µM	> 100 µM		> 100 µM	> 100 µM	> 100 µM	> 100 µM	> 100 µM		> 100 µM	> 100 µM	> 100 µM	> 100 µM	> 100 µM	> 100 µM	> 100 µM	> 100 µM	> 100 µM	> 100 µM	> 100 µM
COc1ccc(-c2csc(Cc3nc4c(Br)cc(Br)cc4c(=O)n3-c3ccc(OC)cc3)n2)cc1	> 100 µM	> 100 µM	> 100 µM	> 100 µM	> 100 µM		> 100 µM		> 100 µM	> 100 µM	> 100 µM	> 100 µM	> 100 µM	> 100 µM	> 100 µM		> 100 µM	> 100 µM	> 100 µM	89.3 µM
